Laboratory results from BigSolDB 2.1.

Cn1[nH]c(=O)c(=O)[nH]c1=S
Settings	solubility (mole fraction)
in acetone, 293.25 K	0.015
in acetone, 298.25 K	0.0155
in acetone, 303.09 K	0.016
in acetone, 308.05 K	0.0168
in acetone, 312.79 K	0.0178
in acetone, 318.03 K	0.0186
in acetone, 323.07 K	0.0199
in acetone, 327.37 K	0.0209
in acetonitrile, 293.21 K	0.00221
in acetonitrile, 298.23 K	0.00248
in acetonitrile, 303.15 K	0.00268
in acetonitrile, 308.11 K	0.00299
in acetonitrile, 313.07 K	0.00333
in acetonitrile, 317.95 K	0.00375
in acetonitrile, 323.11 K	0.0042
in acetonitrile, 328.13 K	0.00463
in acetonitrile, 333.23 K	0.00521
in acetonitrile, 338.17 K	0.00585
in acetonitrile, 342.75 K	0.00654
in ethanol, 293.23 K	0.0125
in ethanol, 298.35 K	0.014
in ethanol, 303.33 K	0.0152
in ethanol, 308.29 K	0.0169
in ethanol, 313.47 K	0.0186
in ethanol, 318.47 K	0.0205
in ethanol, 323.41 K	0.0228
in ethanol, 328.23 K	0.0255
in ethanol, 333.53 K	0.0278
in ethanol, 338.63 K	0.0307
in ethanol, 343.33 K	0.0345
in ethyl acetate, 293.07 K	0.00574
in ethyl acetate, 298.49 K	0.00617
in ethyl acetate, 303.41 K	0.00643
in ethyl acetate, 308.49 K	0.00697
in ethyl acetate, 313.53 K	0.00747
in ethyl acetate, 318.67 K	0.00799
in ethyl acetate, 323.49 K	0.0086
in ethyl acetate, 328.61 K	0.00918
in ethyl acetate, 333.53 K	0.00985
in ethyl acetate, 338.23 K	0.0104
in ethyl acetate, 343.33 K	0.0111
in isopropanol, 293.11 K	0.00556
in isopropanol, 298.21 K	0.00663
in isopropanol, 303.13 K	0.00782
in isopropanol, 308.11 K	0.00915
in isopropanol, 312.87 K	0.0107
in isopropanol, 317.83 K	0.0124
in isopropanol, 323.07 K	0.0142
in isopropanol, 328.13 K	0.0164
in isopropanol, 333.09 K	0.0187
in isopropanol, 337.75 K	0.0217
in isopropanol, 342.67 K	0.0248
in n-butanol, 293.11 K	0.00872
in n-butanol, 298.23 K	0.00964
in n-butanol, 302.99 K	0.0109
in n-butanol, 308.11 K	0.0124
in n-butanol, 313.13 K	0.0141
in n-butanol, 318.05 K	0.0159
in n-butanol, 322.89 K	0.0178
in n-butanol, 328.13 K	0.02
in n-butanol, 333.39 K	0.0224
in n-butanol, 338.07 K	0.0255
in n-butanol, 343.23 K	0.0288
in n-propanol, 292.99 K	0.00859
in n-propanol, 298.33 K	0.00959
in n-propanol, 303.23 K	0.0108
in n-propanol, 308.23 K	0.0122
in n-propanol, 313.15 K	0.0139
in n-propanol, 318.23 K	0.0157
in n-propanol, 323.23 K	0.0176
in n-propanol, 328.47 K	0.0198
in n-propanol, 333.07 K	0.0223
in n-propanol, 338.33 K	0.0251
in n-propanol, 343.35 K	0.0286
in water, 293.23 K	0.00139
in water, 298.15 K	0.00158
in water, 302.93 K	0.00187
in water, 312.93 K	0.00263
in water, 317.65 K	0.00306
in water, 322.85 K	0.00366
in water, 327.77 K	0.00438
in water, 332.83 K	0.00522
in water, 337.35 K	0.00623
in water, 342.47 K	0.00748
